Test results as given in US7514432B2, “Compounds and methods of treating cell proliferative diseases, retinopathies and arthritis” (Exonhit Therapeutics SA, priority 2003, dated 2009).

Legend:
REF cells = test: Lamellipodia/ruffles formation after wounding; assay type: cell-based
Description: This assay has been described by Nobes & Hall (J. Cell Biol., 1999). • Preparation of REF cells: REF cells are prepared from 15-18 E14 embryos. Briefly, the head, tail and viscerae are removed from the embryo. Only the torso is kept, sliced into small squares, washed, treated with trypsin-EDTA for 20 min. at 37° C., resuspended in medium, counted and plated. After 24 h, the cells are trypsinized and frozen in cryovials. 48 h before the wound healing assay, the cells are plated on coverslips. The day of the experiment, the cells are treated with the test compounds or DMSO alone. After 30 min., a scrape is done in the center of the coverslip using a small pipette tip. The cells are washed and fresh medium containing the compound or the DMSO is added. • Time-Lapse microscopy: The dishes containing the scraped coverslips and the treatment medium, sealed with parafilm is put under a thermostated microscope (37° C.) coupled to a video camera and a computer. Microscope images were collected every 5 minutes and recorded using the OpenLab software. When the assay is terminated (after 4 to 24 hours), pictures and movies are analyzed using the Metamorphe software. The pictures were calibrated (pixel converted to μm), and the velocity and total distance covered were calculated after tracking 7 to 10 single cells on the movies. […] The position of each point was recorded. […]

HMEC-1 cells = test: Tubule formation (tubulogenesis) assay on Matrigel; assay type: cell-based, Human; settings: HMEC1 on Matrigel; for IC50: Homo sapiens, HMEC-1, 6 to 8 hours, read-out: IC50, tubulogenesis (number of junctions)
Description: FIG. 5: Tubulogenesis assay (number of junctions). 2 10^4 Cells were plated on Matrigel-coated wells as described in the material and methods. Pictures of each well were taken after a 7-hours incubation. The “number of junctions” parameter was quantitated using the AngioSys software and data were analyzed using GraphPad Prism for IT50 calculation. Values represent the mean±SEM of 2 to 30 independent experiments.
The endothelial cell tube formation assay, or tubulogenesis assay, is an in vitro assay that is widely accepted to accurately reflect number of terminal stages of the angiogenic process such as attachment, migration and differentiation into tubular structures. In this model, endothelial cells are cultured on a monolayer of reconstituted basement membrane components (Matrigel) and form, in a few hours, capillary-lilke structure. Therefore, this system is a useful and powerful tool for rapidly screening anti-angiogenic agents by monitoring inhibition of endothelial cells morphogenesis on extracellular matrix.
HMEC-1 cell line is cultured in MCDB-131 medium (Sigma) supplemented with 15% FBS, 10 ng/ml recombinant human epidermal growth factor (Invitrogen) and 1 μg/ml hydrocortisone. Cells are cultured to 70-80% confluence. A 96-well plate was coated with Matrigel® Basement Membrane Matrix (Becton Dickinson). 2 10^4 HMEC-1 cells were seeded into each well. The test or control compounds were diluted in DMSO and added to the coated plate. The plate was subsequently incubated for 6 to 8 hours at 37° C., 5% CO2 atmosphere to allow tubule formation. The cells were then incubated with 1.25 μg/ml Calcein AM for 15 minutes at 37° C., 5% CO2. Pictures of each well were taken using a fluorescent microscope and a digital camera (Nikon Coolpix 990). Images were analysed using AngioSys software (TCS Cellworks) that allows quantification of the total tubule length and of the number of junctions, two parameters representative of tubule formation/disruption. Data was analyzed using the GraphPad Prism software, and IT50s (dose leading to 50% inhibition of tubulogenesis) was calculated.

[1] = system: intersegmental vessels of zebrafish embryos; test: In vivo zebrafish angiogenesis assay; settings: embryos 20 hpf, incubated 28 hours; for max inhibition of intersegmental vessels formation: 1% DMSO
Description: FIG. 6: In vivo zebrafish angiogenesis assay. 20 Hours post fertilization (hpf) embryos Were incubated with compounds and 1% DMSO for 28 hours. Vessels were stained with NBT/BCIP and morphometric analyses were done using the Adobe Photoshop software. For each condition, 10 embryos were analyzed and results were expressed as means±SEM. (A) dose response curves. (B) table presenting the 50% and max inhibition of intersegmental vessels formation together with the percentage of dead embryos (see material and methods).
In vivo zebrafish angiogenesis model: This assay is a viable and validated whole animal model for screening small molecules that affect blood vessel formation (Serbedzija et al, Angiogenesis, 1999). The study was subcontracted to Phylonix Pharmaceutical, Cambridge, Mass., USA. • Drug treatment: Intersegmental vessels (ISVs) in zebrafish are well accepted as angiogenic vessels, and they are easily observed using microscopy. By 20 hpf stage, the major vasculogenic vessels (dorsal aorta and caudal vein) have developed. By 48 hours post fertilization (hpf), ISVs have formed by sprouting from the dorsal aorta and caudal vein. Therefore, 20 hpf was used as the starting point and 48 hpf as the end point for drug treatment. Zebrafish embryos staged at 20 hpf were incubated with compound solution at 28° C. for 28 hours in 6-well plates, 20 embryos per well. Embryos treated with 1% DMSO and 5 μM Flavopiridol were used as negative and positive controls, respectively. • Microscopy: All light microscopy studies were performed using a ZEISS Stemi 2000-C stereomicroscope (Zeiss), equipped with a digital spot camera (Diagnostic Instruments Inc.). Images were further processed and analyzed using Adobe Photoshop 7.0 (Adobe). • Whole mount EAP staining: Embryos were fixed in 4% PFA for 2 hours at room temperature, and dehydrated in 100% ethanol following standard procedures. Embryos were then rehydrated, blocked, and stained with NBT/BCIP. After washing, embryos were examined by microscopy. • Quantitation of anti-angiogenic effects: To quantitate anti-angiogenic effects, 5 well developed trunk ISVs located around the anal pore were selected and morphometric analysis [area (pixel)× signal intensity] was performed using Adobe Photoshop. For each condition, 10 embryos were assessed and the mean value of 10 images was calculated using EXCEL software program (Microsoft Corporation). To calculate the inhibitory effect, the mean value of signal (S) in 5 ISVs in drug treated embryos was divided by mean value of S in DMSO control embryos, and calculated as % inhibition using the following formula: […]

SMILES | lamellipodia/ruffles formation after wounding (REF cells) | fold more active than reference compound CAI in tubulogenesis (HMEC-1 cells) [fold] | IC50 (HMEC-1 cells) [µM] | anti-angiogenic activity in the zebrafish embryo [1] | toxicity in zebrafish embryos [1] | max inhibition of intersegmental vessels formation [1] [%]
Cl.Cl.O=c1cc(CN2CCOCC2)occ1OCCCCCSc1ccnc2cc(C(F)(F)F)ccc12 [EHT 1864, 5-(5-(7-(Trifluoromethyl)quinolin-4-ylthio)pentyloxy)-2-(morpholinomethyl)-4H-pyran-4-one dihydrochloride] | dose-dependent inhibition of lamellipodia/ruffles formation | 4 | 34.9 ± 3.5 | dose-dependent anti-angiogenic activity | much less toxic than reference compounds Flavopiridol and SU-5416 | 77
Cl.Cl.Cl.O=c1cc(CN2CCNCC2)occ1OCCCCCSc1ccnc2cc(C(F)(F)F)ccc12 [EHT 8560, 5-(5-(7-(Trifluoromethyl)quinolin-4-ylthio)pentyloxy)-2-((piperazin-1-yl)methyl)-4H-pyran-4-one trihydrochloride] | – | – | 17 ± 3.6 | – | – | –
CN1CCN(Cc2cc(=O)c(OCCCCCSc3ccnc4cc(C(F)(F)F)ccc34)co2)CC1.Cl.Cl.Cl [EHT 9241, 5-(5-(7-(Trifluoromethyl)quinolin-4-ylthio)pentyloxy)-2-((4-methylpiperazin-1-yl)methyl)-4H-pyran-4-one trihydrochloride] | dose-dependent inhibition of lamellipodia/ruffles formation | – | 26 ± 8.7 | – | – | 40
